Measured values reported in ChEMBL document CHEMBL3507680, “University of Dundee, Gates Library screen for HepG2 cell viability”.

experiment: Human HepG2 cell viability assay in 384 well format; assay type: toxicity, cell-based; design: dose 125 nL, time 70.5 hour; concentration not given beside the values; settings: HepG2 cells, read-out: Inhibition

SMILES	cytotoxicity at 70.5 h
Cc1ccc2nc(C3CCCN(CC(C)C)C3)nc(O)c2c1 (stereo not drawn)	-2.98%
CN(Cc1ccco1)C[C@@H]1OC[C@H]2CN(Cc3nccs3)CC[C@H]21	4.46%
CCOc1ccccc1C(CC(=O)Nc1nc(C)cs1)NC(C)=O (stereo not drawn)	-8.99%
C1CC(N2Cc3nnn(CC4CC4)c3C(COCC3CC3)C2)C1 (stereo not drawn)	-3.4%
O=C(c1ccc(F)cc1)N1CC[C@H]2[C@H]1CCN2CC1CCOCC1	-6.57%
CC(O)CN1CCN(C(=O)c2ccn(-c3ccccc3Cl)n2)CC1 (stereo not drawn)	-2.57%
COc1cc(NC(=O)NC2CC2)ccc1N1CCOC1=O	-8.49%
CCCNC(=O)c1cc(OC)c(OC)cc1N(C)S(C)(=O)=O	-8.53%
Cc1c(C2CCCN(C(=O)Cc3ccccn3)C2)n2c(nc1=O)CCC2 (stereo not drawn)	0.807%
CS(=O)(=O)N1C[C@@H]2COC[C@@H](CC(=O)N3CCCO3)[C@@H]2C1	-8.58%
Cc1cc(C(N)=O)c2c(Br)cccc2n1	-13.6%
Cc1ccnc(C2(C)CCCN2S(=O)(=O)c2c(C)noc2C)n1 (stereo not drawn)	1.94%
Cc1cnc(C(C)(C)NC(=O)NCc2ccc(C#N)cc2F)s1	-5.64%
COc1ccccc1C(N)CC(C)C (stereo not drawn)	-8.84%
O=C(O)c1cc(-c2ccn(CC3CC3)n2)n2ccccc12	-1.77%
CC(C)c1cc2c(O)nc(CSCC(=O)O)nc2s1	-14.7%
O=C(c1ccccc1N1CCOCC1)N1CCCC(n2ccnc2)C1 (stereo not drawn)	-6.72%
Cc1ccc(-c2c[nH]c([C@@H]3COCCN3Cc3cccnc3)n2)cc1	14.4%
O=C(NCCNc1cnccn1)c1scnc1Cl	-8.29%
COc1cccc(CN2CCC(c3cc(O)nc(C)n3)C2)c1 (stereo not drawn)	-3.89%
CCCc1nc(N(C)CCc2noc(C(C)C)n2)c2cnn(C)c2n1	5.48%
CN(CCNC(=O)c1ccnc(-n2ccnc2)c1)C1CC1	-1.87%
CC(C(=O)N1CCOCC1)N1CCc2cncnc2C1 (stereo not drawn)	-4.71%

SMILES	cytotoxicity at 70.5 h
CN(C)CCN1CC(C(=O)N(C)Cc2cc3cc(F)ccc3[nH]2)CC1=O (stereo not drawn)	-7.58%
CCc1nc(CSC2CCCN(c3cnn(C)c3)C2=O)cs1 (stereo not drawn)	7.29%
Cc1noc(-c2ccnc(Oc3ccccc3CN3CCCCC3)c2)n1	-1.96%
O=C(NC[C@]12COC[C@H]1CN(Cc1cccc(F)c1)C2)c1ccco1	-12.4%
CSc1ccc(CNc2n[nH]c(C)n2)cc1	44.9%
CCCN(CC(F)(F)F)S(=O)(=O)c1cc(C(N)=O)n(C)c1	-8.17%
CN1CCN(Cc2noc(-c3cc(-c4ccccc4F)n[nH]3)n2)CC1	17.5%
O=C(c1ccncc1)N1CCC2(CC1)CC(Oc1cccnc1)CO2 (stereo not drawn)	-14.5%
COC(=O)CN(C(=O)C(C)c1c(F)cccc1F)c1cccc(C)n1 (stereo not drawn)	-4.95%
NCCC(Cc1ccccc1)c1ccco1 (stereo not drawn)	35%
CN(CC(O)CO)C(=O)c1coc(COc2cccc(F)c2)n1 (stereo not drawn)	8.53%
CC1=C[C@@H](CNS(C)(=O)=O)[C@H](C(C)C)C[C@H]1CC(=O)NCCN(C)C	1.17%
Cc1ccc2[nH]c(CN(C)Cc3ccccc3C(=O)O)nc2c1	-7.29%
CCN(Cc1nonc1C)C(=O)Cn1nc(C(F)(F)F)cc1C1CC1	-5.16%
O=C(NCCCN1CCN(c2ncccn2)CC1)NCC1CCCO1 (stereo not drawn)	-3.85%
CN(C)C(=O)COCc1ncn2c1CN(c1ncc(F)cn1)CCC2	9.71%
CC1COCCN1C(=O)NCCCn1ccnc1 (stereo not drawn)	-2.86%
CC(C)CN1CCS(=O)(=O)[C@@H]2CCN(S(=O)(=O)CC(C)C)CC[C@@H]21	-3.69%
O=C(c1ccnc(C2CCNCC2)c1)N1CCCOCC1	-1.42%
O=C(CCc1nc(C2CC2)no1)c1ccccc1	-16%
COCC1CCN(c2nc(C(C)(C)C)nc3c2cnn3C)C1 (stereo not drawn)	15.8%
Cn1nnnc1SCC(=O)N1CCN(C(=O)C2CC2c2cccs2)CC1 (stereo not drawn)	1.49%
CC(NCc1cccc(S(=O)(=O)N(C)C)c1)c1ccccn1 (stereo not drawn)	-6.92%

SMILES	cytotoxicity at 70.5 h
CC(C(=O)Nc1ccc(Cl)cn1)N1CCc2nn(C)c(=O)cc2C1 (stereo not drawn)	-2.78%
c1csc(N2[C@H](Cn3cncn3)C[C@@H]3CNCC[C@@H]32)n1	10.2%
Cc1cc(NC2CCc3ncnn3C2)n2nc(C(F)(F)F)nc2n1 (stereo not drawn)	-95.5%
CN(C)c1ccc(C(=O)N2CCN(C(=O)N3CCCCC3)CC2)nn1	-18.5%
O=C(NC[C@]12COC[C@H]1CN(Cc1cccs1)C2)c1ccsc1	-9.66%
COCCN1CC2(CCCN(c3ncnc4[nH]cnc34)C2)CCC1=O (stereo not drawn)	-1.89%
CCc1cnc(N2CC[C@H]3[C@@H]2CCC(=O)N3CC2CCOCC2)nc1	20.9%
Cc1cc(C(F)(F)F)nn1CCNC(=O)C(C)n1ccnc1C(C)C (stereo not drawn)	10.3%
COc1ccccc1OCC(=O)N1C[C@@H]2CN(C)CCO[C@@H]2C1	32.3%
Cc1cc(C)cc(CN2CCN(C(=O)CCc3n[nH]c(C)n3)CC2=O)c1	22.5%
Cc1cc(CN2CCCC(Cn3cncn3)C2)no1 (stereo not drawn)	16%
O=C(c1ccc[nH]1)N1CCCn2cnc(COCC3CC3)c2C1	-9.86%
O=C(Nc1cnn(-c2ccccc2Cl)c1)N[C@@H]1C=C[C@H](CO)C1	-5.42%
CC(C)CN1CCC(NC(=O)NCCC(=O)NCc2ccccc2)CC1	-2.46%
COc1ccccc1C(=O)Nc1ccc([C@@H](O)[C@H]2COCC(=O)N2)cc1	-4.28%
CN(C)c1cc(C(=O)N2CCCN(Cc3nccn3C)CC2)ccn1	14.3%
Cn1ccc2cc(C(=O)N3CCOCC3)ccc21	-9.22%
COCCC(=O)N1CCCCC1c1ccc(F)cc1 (stereo not drawn)	5.22%
CCN(CCc1nc2cc(C)ccc2[nH]1)C(=O)[C@@H](N)COC	10%
O=C(CCOc1ccccc1F)N1CCOCC1	44.2%
Cc1ccc(N2CCN(C(=O)COc3nccc(C)n3)CC2)nn1	16%
Cc1cc(NCC(=O)N(C)CC(F)(F)F)c(C(N)=O)cc1F	1.83%
COC(=O)C1CN(Cc2ccn(-c3ccc(F)cc3)n2)CCO1 (stereo not drawn)	5.92%

SMILES	cytotoxicity at 70.5 h
CN(C)c1ccc(C(=O)Nc2cn[nH]c2)cc1	-2.5%
COCCN1CCC12CCN(C(=O)Cc1cccs1)C2 (stereo not drawn)	-7.8%
CC(C)S(=O)(=O)c1ccccc1C(=O)NCC1Cc2ccccc2O1 (stereo not drawn)	-1.85%
O=C(O)c1c(-c2ccncc2)ncc2c1CCN(CC1CCOC1)C2 (stereo not drawn)	-4.36%
Cn1ccc(C(=O)N2CCN(c3nccs3)CC2)cc1=O	2.52%
O=C1CN(Cc2nnc(-c3ccc(Br)o3)o2)CCN1	-7.06%
CCc1nnc2n1CCN(C(=O)c1ccc3cc[nH]c3c1)C2	-4.35%
Cc1nc(-c2cncnc2C2CCCNC2)no1 (stereo not drawn)	26.9%
COCCCNc1cc(C(=O)N2CCOCC2)ccc1C	-17.5%
NC(=O)CC1CCN(CC(O)c2ccc(Br)cc2)CC1 (stereo not drawn)	-6.64%
O=C(CC1CN(Cc2ccccc2)CCO1)Nc1ccsc1 (stereo not drawn)	8.64%
CC(C)CN1CC[C@@H]2[C@@H]1CCN2S(=O)(=O)c1cn(C)cn1	-10.9%
COCC(=O)N1CCc2ccccc2C12CCNCC2	18.5%
CCn1cc(NC(=O)NCC(c2cccs2)N(C)C)cn1 (stereo not drawn)	-4.7%
C[C@@H]1CN(C(=O)C2CCS(=O)(=O)CC2)CC[C@@]1(O)C1CCOCC1	-11%
Cc1nc(CCN)cc(N2CCC(O)(c3ccccc3)C2)n1 (stereo not drawn)	-4.16%
O=C1CCCc2cc(-c3csc(CCN4CCOC4=O)n3)ccc2N1	-0.559%
CN1CCCC2(CCN(c3cccc(C(F)(F)F)n3)C2)C1=O (stereo not drawn)	-6.46%
O=C(NCC1CCCO1)c1cc(-c2cccnc2)c2cnccc2n1 (stereo not drawn)	-3.09%
Cc1nn(CCC(=O)N2CCN(Cc3cnn(C)c3C)CC2)c(C)c1Br	1.42%
CCC(=O)N1CCc2[nH]cnc2C12CCN(C1CCOCC1)CC2	-4.44%
Cn1cccc1C(=O)N1CCn2cc(CNC(=O)CC3CC3)nc2C1	-10.2%
CC(=O)N1CCc2[nH]c(=O)ccc2C1	-6.79%

SMILES	cytotoxicity at 70.5 h
Cc1cnn(CC2CN(Cc3nc4ccccc4nc3C)CCO2)c1 (stereo not drawn)	-0.573%
COc1ccccc1C(O)CNc1nccc(-c2ccc(C)nc2C)n1 (stereo not drawn)	-14%
CC(C)CCN1CN=C(NS(=O)(=O)c2ccc(F)cc2)NC1	-8.69%
COc1ccc2c(c1)C1(CCNCC1)CC2NC1CC1 (stereo not drawn)	27.2%
CC(=O)N1CCC2(CC1)CN(C(=O)c1ccc3c(c1)OCCO3)C2	5.66%
COc1ccccc1-c1ccccc1CC1(C(=O)O)CCNCC1	0.76%
CCN1CCN(CC(O)c2ccc(Br)cc2)CC1 (stereo not drawn)	-1.54%
CCc1c(C)nc(-n2nc(-c3cccs3)cc2N)[nH]c1=O	-5.27%
Cn1cc(-c2nnn3c2COC(CNCC2CCOCC2)C3)cn1 (stereo not drawn)	-7.48%
OC1CCN(c2ccnc3c(F)cc(Br)cc23)CC1	16.9%
c1cc(CN2CCO[C@@H]3CNC[C@@H]32)cs1	-2.99%
CC(C(=O)NC(C)(C)C)S(=O)(=O)Cc1noc(C(C)(C)C)n1 (stereo not drawn)	-5.8%
CCOC(=O)[C@@H]1[C@@H](c2ccccc2)CN2CCNC[C@H]12	-11%
CC(C)(C)CN(CCO)C(=O)Nc1cccc(N2CCNC2=O)c1	-4.71%
CCC[C@H]1CN(C2CCOCC2)C[C@@H]1NC(=O)CCn1ccnc1C	3.94%
CNC(=O)c1cnc(/C=C/c2cc(OC)c(OC)c(OC)c2)s1	3.41%
CS(=O)(=O)CCNCc1ccc(OCc2cscn2)cc1	-3.66%
CCOc1ccc(Cl)cc1CCNC(=O)N1CCCC(CO)C1 (stereo not drawn)	-7.21%
CC(C)(CNc1ccc(S(=O)(=O)C(F)F)cc1)N1CCOCC1	18.8%
OCCN1CCOC2(CCCN(c3ncc(F)cn3)C2)C1 (stereo not drawn)	-3.36%
Cn1ccc(C(=O)N2CCC3(CC2)CC(Nc2cnccn2)CO3)n1 (stereo not drawn)	-7%
